Results from patent publication US10632106B2, “Methods of cancer treatment with 2-(1′H-Indole-3′-carbonyl)-thiazole-4-carboxylic acid methyl ester” (Ariagen, Inc., priority 2009, dated 2020).

Columns and labels:
[1] = test system: Murine Lewis lung cancer cell line LLC tumors; assay: Syngeneic murine Lewis lung cancer (LLC) model in C57BL/6 mice; type: in vivo; details: for TGI (Tumor Growth Inhibition): TGI=ΔT/ΔC×100%
Protocol: All the procedures related to animal handling, care, and the treatment in the study were performed following guidelines approved by an Institutional Animal Care and Use Committee (IACUC) of Crown Bioscience, Inc. (Santa Clara, Calif., USA, a contract research organization we hired) based on the guidance of the Association for Assessment and Accreditation of Laboratory Animal Care (AAALAC). Animals were checked for any effects of tumor growth and drug treatment on normal behavior such as mobility, food and water consumption, body weight gain/loss (gross body weights were measured twice weekly), eye/hair matting, and any other abnormal effect. Death and observed clinical signs were recorded on the basis of the number of animals within each group. Individual animals with a tumor volume exceeding 3,000 mm^3 or animals of a group with a mean tumor volume exceeding 2,000 mm^3 were euthanized. In addition, animals showing signs of severe distress and/or pain, dropping body weight more than 20% from that at the start of treatment, or losing the capability of accessing adequate food or water were humanely sacrificed.
Tumor volume was measured twice weekly in two dimensions using a caliper and the volume was calculated with a formula of: V=0.5 a×b^2, where a and b are the long and short diameter (in mm) of a tumor, respectively. The tumor volume was then used for calculations of both TGI (Tumor Growth Inhibition) and TGD (Tumor Growth Delay). The TGI was determined by: TGI=ΔT/ΔC×100%, where ΔT was a difference between the mean tumor volume at a specified day of observation and that at the day treatment starts (day 1) for a drug treated group whereas ΔC was the same difference measured for the control group. The TGD was calculated as: TGD=T−C, where T was the time (in days) required for tumors in a drug treated group to reach a predetermined mean tumor volume and C the time (in days) in the control group to reach the same volume. A tumor weight was derived by equating 1,000 mm^3 in volume to 1,000 mg in weight. A net body weight was then derived by subtracting a tumor weight from a corresponding gross body weight with the tumor.
Summary statistics, including mean and the standard error of the mean (SEM), are provided for the tumor volume of each group at each time point. Statistical analysis of difference in tumor volume among groups was conducted on a data set either at the best therapeutic time point or at the final dosing day as indicated. The tumor volume data were log-transformed and evaluated using a one-way ANOVA followed by Tukey's test when significance was observed. All data were analyzed using SPSS 16.0 and p<0.05 was considered to be statistically significant.
Murine Lewis lung cancer cell line LLC (ATCC) was cultured as described for LNCaP in Example 1 except DMEM, instead of RPMI-1640, medium being used. Each female C57BL/6 mice, 6 to 8 weeks of age, was inoculated with 3×10^5 LLC cells in 0.1 ml of PBS for tumor development. ITE treatment was started when a mean tumor volume reached 80 to 120 mm^3. All the other materials and methodologies were the same as that described in Example 1.

[2] = test system: SW116 (human colon cancer) xenografts; assay: SW116 xenograft growth inhibition; type: in vivo; details: ITE 100-200 mg/kg i.p. once daily
Protocol: All the procedures related to animal handling, care, and the treatment in the study were performed following guidelines of KeyGen Biotechn Co., Ltd. (Nanjing, China), a contract research organization we hired, based on the guidance of the Association for Assessment and Accreditation of Laboratory Animal Care (AAALAC). Animals were checked for any effects of tumor growth and drug treatment on normal behavior such as mobility, food and water consumption, body weight gain/loss (bodyweights were measured every two days), eye/hair matting, and any other abnormal effect. Death and observed clinical signs were recorded. Individual animals with a tumor volume exceeding 3,000 mm^3 or animals of a group with a mean tumor volume exceeding 2,000 mm^3 were euthanized. In addition, animals showing signs of severe distress and/or pain or losing the capability of accessing adequate food or water were humanely sacrificed.
Cell lines HCT116, Siha, MFC were cultured in DMEM medium (high glucose) supplemented with 10% fetal bovine serum (FBS), SW116 and T24 in RPMI-1640 medium with 10% FBS, M14 and A375 in DMEM medium (high glucose) with 10% calf serum (CS), SGC7901 and Ketr-3 in RPMI-1640 medium with 10% CS, and CFPAC-1 in IMDM medium with 10% FBS. All of the cells were cultured, in the presence of 100 U/ml penicillin and 100 μg/ml streptomycin, at 37° C. in an atmosphere of 5% CO2 in air. […] The cells growing in an exponential phase were harvested and counted for tumor inoculation. Cell lines 5180 and U14 were maintained in ascites (peritoneal cavity fluid) of mice and were harvested and counted for tumor inoculation. […]
Tumor volume was measured every two days in two dimensions using a caliper and the volume was calculated with a formula of: V=0.5 a×b^2, where a and b are the long and short diameter (in mm) of a tumor, respectively. […] The TGD was calculated as: TGD=T−C, where T was the time (in days) required for tumors in a drug treated group to reach a predetermined mean tumor volume and C the time (in days) in the control group to reach the same volume. […]

Compound: COC(=O)c1csc(C(=O)c2c[nH]c3ccccc23)n1 [ITE, 2-(1′H-indole-3′-carbonyl)-thiazole-4-carboxylic acid methyl ester]
- TGI (Tumor Growth Inhibition) ([1]; 20 mg/kg b.w. i.p. once daily, day 15): 65%
- tolerability by body weight change monitoring ([1]; 80 mg/kg b.w. i.p. once daily): tolerated well
- tumor elimination in one mouse of the ITE group (mouse No. 33) ([1]; 80 mg/kg b.w. i.p. once daily for 28 days, stayed tumor free for one more month of observation): its tumor was no longer palpable at day 13
- TGD (Tumor Growth Delay) ([1]; 80 mg/kg b.w. i.p. once daily, at a tumor volume of 1000 mm^3): 7 days
- TGI (Tumor Growth Inhibition) ([1]; 80 mg/kg b.w. i.p. once daily, day 20): 42%
- TGD ([2]; TGD at Vol. 1,000): 9 days
- TGI (%) ([2]; TGI at day 20, TGI=(1−ΔT/ΔC)×100%): 67%
- Weight Loss ([2]; end of therapy relative to beginning): 15%
